For assay [1], the target named is T1, mGAT2 (Mus musculus, UniProt P31651).
T1 construct: expressed in transfected cells; host or cells: HEK-293
T1 sequence (P31651 1-614): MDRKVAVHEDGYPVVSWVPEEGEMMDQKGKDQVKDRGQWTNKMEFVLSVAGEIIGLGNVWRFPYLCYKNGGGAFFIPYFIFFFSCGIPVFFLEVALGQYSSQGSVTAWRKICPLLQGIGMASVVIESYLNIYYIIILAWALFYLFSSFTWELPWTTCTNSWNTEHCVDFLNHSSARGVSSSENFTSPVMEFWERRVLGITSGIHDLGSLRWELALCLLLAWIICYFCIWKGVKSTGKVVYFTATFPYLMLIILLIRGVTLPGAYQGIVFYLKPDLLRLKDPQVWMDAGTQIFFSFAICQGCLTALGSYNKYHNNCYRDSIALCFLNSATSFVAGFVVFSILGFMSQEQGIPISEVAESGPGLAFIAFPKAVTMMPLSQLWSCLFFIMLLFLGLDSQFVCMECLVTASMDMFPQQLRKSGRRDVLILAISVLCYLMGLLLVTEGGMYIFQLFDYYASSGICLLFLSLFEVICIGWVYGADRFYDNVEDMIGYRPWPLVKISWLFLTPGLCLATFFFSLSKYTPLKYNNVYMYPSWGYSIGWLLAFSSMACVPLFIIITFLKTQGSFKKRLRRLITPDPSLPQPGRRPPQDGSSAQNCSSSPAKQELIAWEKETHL
The conditions noted are these: cited from earlier work; for remaining [3H]GABA uptake mGAT2: 100 μM inhibitor.

The target in assay [2] is T2, mGAT1 (Mus musculus, UniProt P31648).
T2 construct: expressed in transfected cells; host or cells: HEK-293
The conditions noted are these: Figure 2; cited from earlier work.

The target in assay [3] is T3, mGAT3 (Mus musculus, UniProt P31649).
T3 construct: expressed in transfected cells; host or cells: HEK-293
T3 sequence (P31649 1-602): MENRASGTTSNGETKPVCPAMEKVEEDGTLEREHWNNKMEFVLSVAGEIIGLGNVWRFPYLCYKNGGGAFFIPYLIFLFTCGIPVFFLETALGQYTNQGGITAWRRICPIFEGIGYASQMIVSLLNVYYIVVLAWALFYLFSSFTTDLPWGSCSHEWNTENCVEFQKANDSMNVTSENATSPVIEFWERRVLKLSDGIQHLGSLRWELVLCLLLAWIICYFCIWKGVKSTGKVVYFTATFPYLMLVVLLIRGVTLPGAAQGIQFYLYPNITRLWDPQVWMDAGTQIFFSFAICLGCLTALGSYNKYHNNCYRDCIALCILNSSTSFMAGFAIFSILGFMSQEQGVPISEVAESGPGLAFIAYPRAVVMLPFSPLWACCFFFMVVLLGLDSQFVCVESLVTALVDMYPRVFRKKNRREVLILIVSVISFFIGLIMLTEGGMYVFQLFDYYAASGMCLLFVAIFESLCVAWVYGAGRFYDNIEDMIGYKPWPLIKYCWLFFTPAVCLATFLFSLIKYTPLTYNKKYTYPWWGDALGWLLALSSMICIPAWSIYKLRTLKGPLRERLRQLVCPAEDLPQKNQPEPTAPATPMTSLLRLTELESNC
The settings on record: cited from earlier work.

Assay [4] addresses T4, mGAT4 (Mus musculus, UniProt P31650).
T4 construct: expressed in transfected cells; host or cells: HEK-293
T4 sequence (P31650 1-627): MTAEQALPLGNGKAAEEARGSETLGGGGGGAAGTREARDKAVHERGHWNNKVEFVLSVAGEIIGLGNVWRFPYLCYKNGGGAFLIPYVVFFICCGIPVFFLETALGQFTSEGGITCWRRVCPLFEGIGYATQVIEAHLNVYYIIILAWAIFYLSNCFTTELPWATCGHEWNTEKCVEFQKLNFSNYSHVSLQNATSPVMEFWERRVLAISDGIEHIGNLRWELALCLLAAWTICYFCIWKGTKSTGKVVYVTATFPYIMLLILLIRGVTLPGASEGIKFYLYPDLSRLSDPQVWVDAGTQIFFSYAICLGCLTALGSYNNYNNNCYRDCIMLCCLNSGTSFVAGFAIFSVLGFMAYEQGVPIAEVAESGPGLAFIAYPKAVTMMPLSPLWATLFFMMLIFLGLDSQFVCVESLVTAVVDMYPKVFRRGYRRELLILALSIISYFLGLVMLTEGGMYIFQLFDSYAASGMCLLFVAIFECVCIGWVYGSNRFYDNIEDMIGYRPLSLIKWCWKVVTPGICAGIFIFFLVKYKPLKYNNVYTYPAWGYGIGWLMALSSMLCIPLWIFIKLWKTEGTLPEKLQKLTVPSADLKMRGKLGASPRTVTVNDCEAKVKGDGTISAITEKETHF
The settings on record: cited from earlier work.

Assay [5] deals with T2, mGAT1. The settings on record: 100 μM inhibitor; cited from earlier work.
For assay [6], the target named is T2, mGAT1. The experiment in a line: [3H]GABA uptake assay in HEK-293 cells stably expressing mGAT1. The class given is cell-based. The conditions noted are these: in the presence of 100 μM inhibitor.
Assay [7] addresses T1, mGAT2. The experiment in a line: [3H]GABA uptake assay in HEK-293 cells stably expressing mGAT2. In kind it is cell-based. The settings on record: in the presence of 100 μM inhibitor.
Assay [8] concerns the target T3, mGAT3. The experiment in a line: [3H]GABA uptake assay in HEK-293 cells stably expressing mGAT3. In kind it is cell-based. The conditions noted are these: in the presence of 100 μM inhibitor.
The target of assay [9] is T4, mGAT4. Nature of the assay: [3H]GABA uptake assay in HEK-293 cells stably expressing mGAT4. The class given is cell-based. The settings on record: in the presence of 100 μM inhibitor.
In assay [10] the target is T2, mGAT1. Nature of the assay: competitive MS binding assay with NO711 as unlabeled marker (LC-ESI-MS/MS). Put shortly: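 Competitive MS binding with unlabeled NO711 as marker, quantified by LC–ESI-MS/MS. Compounds screened at 100 μM for inhibition of marker binding.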

Read-outs that look alike come from different tables or passages of the source.

For `COc1ccc(C(OCCN2CCC[C@H](C(=O)O)C2)(c2ccc(OC)cc2)c2ccc(OC)cc2)cc1` [(S)-SNAP-5114, (S)-1-{2-[Tris(4-methoxyphenyl)methoxy]ethyl}piperidine-3-carboxylic acid], on mGAT2 [1], the “remaining [3H]GABA uptake mGAT2” value was 100 μM: 56% and the “mGAT2 % (100μM)” value is 56%.
On to `O=C(O)[C@@H]1CCCN(CCC#Cc2ccccc2-c2ccc(F)cc2Cl)C1` [Compound 7], for which the “pIC50 mGAT1” value on mGAT1 [2] is reported as 7.68. Besides, the “mGAT2 % (100μM)” value on mGAT2 [1] is given as 55%. At mGAT3 [3] (Figure 2), the “pIC50 mGAT3” value is 4.56. At mGAT4 [4] (Figure 2), the “pIC50 mGAT4” value is reported as 4.29.
In the case of `COc1ccc(C(OCCN2CCC[C@H](C(=O)O)C2)(c2ccc(OC)cc2)c2ccc(-c3ccc(C=O)cc3)cc2)cc1` [Compound 11], the “mGAT2 % (100μM)” value at mGAT2 [1] was 73%. The “pIC50 mGAT3” value at mGAT3 [3] (Figure 2) was 5.16.
In the case of `O=C1Nc2ccc(-c3cccs3)cc2C1=O` [Compound 12], the “pIC50 mGAT1” value on mGAT1 [2] was < 3. The “pIC50 mGAT2” value on mGAT2 [1] (Figure 2) was 3.21.
`Cc1ccsc1C(=CCCN(C)C(CCO)C(=O)NCc1ccccc1Cl)c1sccc1C` (stereo not drawn) [Compound 13]: the “pIC50 mGAT2” value on mGAT2 [1] ([3H]GABA uptake) is listed as 4.98 ± 0.05. Also, the “pIC50 mGAT3” value at mGAT3 [3] ([3H]GABA uptake) is given as 5.31 ± 0.04. The “remaining NO711 binding mGAT1” value at mGAT1 [5] is 100 μM: 77%.
As for `C[C@@H](C(=O)O)N(C)CCC=C1c2ccccc2C=Cc2ccccc21` [Compound 74, N-(3-(5H-Dibenzo[a,d][7]annulen-5-ylidene)propyl)-N-methylalanine], at mGAT1 [6], the “remaining [3H]GABA uptake mGAT1” value is given as 100 μM: 55%. Further, on mGAT2 [7], the “remaining [3H]GABA uptake mGAT2” value is on record as 100 μM: 55%. For the same molecule, the “remaining [3H]GABA uptake mGAT3” value at mGAT3 [8] is listed as 100 μM: 62%. In addition, the “remaining [3H]GABA uptake mGAT4” value at mGAT4 [9] is on record as 100 μM: 77%. Also, the Ki at mGAT1 [10] (MS binding assay, read-out: pKi ± SEM mGAT1 (converted)) is 28.8 µM.
`Cc1ccsc1C(=CCCN(C)C(C)C(=O)O)c1sccc1C` (stereo not drawn) [Compound 75, 2-((4,4-Bis(3-methylthiophen-2-yl)but-3-en-1-yl)(methyl)amino)propanoic Acid]: the “remaining [3H]GABA uptake mGAT1” value at mGAT1 [6] is reported as 100 μM: 71%. Moreover, at mGAT2 [7], the “remaining [3H]GABA uptake mGAT2” value is listed as 100 μM: 59%. On mGAT3 [8], the “remaining [3H]GABA uptake mGAT3” value is on record as 100 μM: 52%. The “remaining [3H]GABA uptake mGAT4” value at mGAT4 [9] is recorded as 100 μM: 60%. Also, the “remaining NO711 binding mGAT1” value on mGAT1 [10] (in the presence of 100 μM inhibitor) is 100 μM: 81%.
Turning to `O=C(O)C1=CCCN(CCO/N=C/c2ccccc2-c2ccc(Cl)cc2Cl)C1` [DDPM-2571], the “pIC50 mGAT3” value at mGAT3 [3] ([3H]GABA uptake) is 4.35.
In the case of `Cc1ccsc1C(=CCCN1CCC[C@@H](C(=O)O)C1)c1sccc1C` [tiagabine, (R)-1-[4,4-bis(3-methyl-2-thienyl)-3-butenyl]-3-piperidinecarboxylic acid], the “remaining [3H]GABA uptake mGAT2” value on mGAT2 [1] was 100 μM: 52%. On mGAT3 [3] (100 μM inhibitor), the “remaining [3H]GABA uptake mGAT3” value was 100 μM: 64%. The “mGAT3 % (100μM)” value at mGAT3 [3] (100μM) is reported as 64%. Moreover, the “remaining [3H]GABA uptake mGAT4” value at mGAT4 [4] (100 μM inhibitor) is listed as 100 μM: 73%. The “mGAT4 % (100μM)” value on mGAT4 [4] (100μM) is given as 73%.
Turning to `NCCC(=O)O` [β-alanine], on mGAT2 [1] (Figure 2), the “pIC50 mGAT2” value is 2.96.
